Results published in patent US20230414775A1, “TUBULYSINS AND PROTEIN-TUBULYSIN CONJUGATES” (priority 2021, published 2023).
Like-named read-outs stand apart in the source and are kept apart here.

What was measured:
[1] = Plasma stability test of payloads (LC-MS/MS, half-life); format: in vitro ADME; details: human plasma, 37° C., time points 0-24 h, read-out: Human plasma stability T1/2 (converted)
Procedure: Stock solutions were prepared at 10 mM in DMSO for the test compound. Aliquots of the stock solutions were diluted to 0.02 mM in 0.05 M sodium phosphate buffer containing 0.5% BSA as the dosing solution. Then 10 μL of the dosing solutions were dosed into 90 μL of pre-warmed plasma (37° C.) in singlet (n=1) in 96-well assay plates to reach a final test concentration of 2 μM. The plates were kept in a 37° C. water bath for the duration of the experiment. At each time point (0, 0.25, 1, 8, 24 h), 400 μL of acetonitrile (containing internal standard) was added into corresponding wells of the assay plates. After the final time point was quenched, the assay plates were shaken on a vibrator (IKA, MTS 2/4) for 10 min (600 rpm/min) and then centrifuged at 5594 g for 15 min (Thermo Multifuge×3R). Aliquots of the supernatant were taken and analyzed by LC-MS/MS. The peak area response ratio to internal standard (PARR) of the compounds at 0.25, 1, 8, and 24 h was compared to the PARR at time zero to determine the percent of test compound remaining at each time point. Half-lives (ti/2) were calculated using Excel software, fitting to a single-phase exponential decay equation.

HCT15 cells = assay: HCT15 anti-proliferation / cell killing assay (CellTiter-Glo), with or without verapamil; format: cell-based, human; details: for IC50: Homo sapiens
Procedure: The cell line used in the anti-proliferation assays was HCT15, a human colon, colorectal carcinoma cell line. The HCT15 cells were grown in RPMI medium 1640+10% FBS. To run the assay, the cells (40 μL, 400 cells) were added to each well in a 384-well plate and incubated for twenty-four hours at 37° C. with 5% CO2. One hour before adding compounds, freshly dilute Verapamil to 0.2 mg/ml in ddH2O. Add 1 μL/well diluted Verapamil to Verapamil treatment wells and 1 μL/well ddH2O to the non-Verapamil treatment wells. Return plates to the incubator at 37° C. with 5% CO2. Then the cells were treated with test compounds at various concentrations using HPD300, and then normalize the DMSO to 0.5%. The control wells contained cells and the medium but lack the test compounds. The plates were incubated for 120 hours at 37° C. with 5% CO2. CTG reagent was then added to the wells (25 μL). After the plates were shaken for 10 min and then incubated for 10 min at room temperature, paste the clear bottom with white back seal and record luminescence with Envision. The inhibition % was calculated according to the following equation: inhibition %=[1−(assay-blank)/(control-blank)]×100.

SK-BR-3 cells = assay: SK-BR-3 anti-proliferation assay for payloads (CellTiter-Glo); format: cell-based; details: Homo sapiens, free payload, 120-144 h, read-out: SKBR3
Procedure: The cell line used in the anti-proliferation assays was SK-BR-3, a human breast, adenocarcinoma (pleural effusion) cell line. The cells were grown in McCoy's 5a Medium+10% FBS. To run the assay for payloads, the cells (40 μL, 700 cells) were added to each well in a 384-well plate and incubated for 24 hours at 37° C. with 5% CO2. Then the cells were treated with test compounds at various concentrations using HPD300, and then normalize the DMSO to 0.5%. The control wells contain cells and the medium but lack the test compounds. The plates were incubated for 120 h at 37° C. with 5% CO2. To run the assay for ADCs and some key payloads, the cells (80 μL, 1000 cells) were added to each well in a 96-well plate and incubated for twenty-four hours at 37° C. with 5% CO2. Next, the ADCs or payloads were diluted with Opti-Mem with 0.1% BSA. The cells were treated with test compounds or ADCs (20 μL) at various concentrations in appropriate cell culture medium (total volume, 0.1 mL). The final concentration of DMSO was adjusted to 0.2% and the Opti-Mem with 0.1% BSA was adjusted to 5%. The control wells contained cells and the medium but lacked the test compounds. The plates were incubated for 144 h at 37° C. with 5% CO2. CTG reagent was then added to the wells (25 μL/384-well or 100 μL/96-well). After the plates were shaken for 10 min and then incubated for 10 min at room temperature, paste the clear bottom with white back seal and record luminescence with Envision. The inhibition % was calculated according to the following equation: inhibition %=[1-(assay-blank)/(control-blank)]×100.

[2] = HCT15 cells, no verapamil, 120 h (5 days), read-out: HCT-15
[3] = HCT-15, HCT15 cells pre-treated with verapamil, 120 h, read-out: HCT-15 with verapamil

SMILES: CCCCCCN(C(=O)[C@@H](NC(=O)[C@H]1CCCCN1C)[C@@H](C)CC)[C@H](C[C@@H](OCCCO)c1nc(C(=O)N[C@@H](Cc2ccc(N)c(F)c2)CC(C)(C)C(=O)O)cs1)C(C)C (mixture of isomers) [PA22, Rac-(R)-5-(4-amino-3-fluorophenyl)-4-(2-((1S,3S)-3-((2R,3R)—N-hexyl-3-methyl-2-((S)-1-methylpiperidine-2-carboxamido)pentanamido)-1-(3-hydroxypropoxy)-4-methylpentyl)thiazole-4-carboxamido)-2,2-dimethylpentanoic acid]
- half-life at 2 μM [1]: 2.65 days
- HCT-15 with verapamil (nM) (HCT15 cells; HCT15 cells pre-treated with verapamil, 120 h): Not reach
- IC50 (HCT15 cells; [2]): 0.532 nM
- IC50 (SK-BR-3 cells): 0.044 nM

SMILES: CCCCCCN(C(=O)[C@@H](NC(=O)[C@H]1CCCCN1C)[C@@H](C)CC)[C@H](C[C@@H](OC(=O)NCCO)c1nc(C(=O)N[C@@H](Cc2ccc(N)c(F)c2)CC(C)(C)C(=O)O)cs1)C(C)C (mixture of isomers) [PA24, (S)-5-(4-amino-3-fluorophenyl)-4-(2-((3RS,6SR,8SR)-3-((RS)-sec-butyl)-5-hexyl-13-hydroxy-6-isopropyl-1-((R)-1-methylpiperidin-2-yl)-1,4,10-trioxo-9-oxa-2,5,11-triazatridecan-8-yl)thiazole-4-carboxamido)-2,2-dimethylpentanoic acid]
- half-life at 2 μM [1]: 1.81 days
- IC50 (HCT15 cells; [2]): 0.944 nM
- IC50 (HCT15 cells; [3]): 0.255 nM
- IC50 (SK-BR-3 cells): 0.135 nM

SMILES: CCCCCCN(C(=O)[C@@H](NC(=O)[C@H]1CCCCN1C)[C@@H](C)CC)[C@H](C[C@@H](OC(C)=O)c1nc(C(=O)N[C@@H](Cc2ccc(NCCO)cc2)CC(C)(C)C(=O)O)cs1)C(C)C (racemic) [PA14, Rac-(R)-4-(2-((1S,3S)-1-acetoxy-3-((2R,3R)—N-hexyl-3-methyl-2-((S)-1-methylpiperidine-2-carboxamido)pentanamido)-4-methylpentyl)thiazole-4-carboxamido)-acid]
- half-life at 2 μM [1]: 2.96 days
- IC50 (HCT15 cells; [2]): 0.618 nM
- IC50 (HCT15 cells; [3]): 0.147 nM
- IC50 (SK-BR-3 cells): 0.158 nM

SMILES: CCCCCCN(C(=O)[C@@H](NC(=O)[C@H]1CCCCN1CCO)[C@@H](C)CC)[C@H](C[C@@H](OC(C)=O)c1nc(C(=O)N[C@@H](Cc2ccc(N)c(F)c2)CC(C)(C)C(=O)O)cs1)C(C)C [PA8, (4S)-4-({2-[(1R,3R)-1-(acetyloxy)-3-[(2S,3S)—N-hexyl-2-{[(2R)-1-(2-hydroxyethyl)piperidin-2-yl]formamido}-3-methylpentanamido]-4-methylpentyl]-1,3-thiazol-4-yl}formamido)-5-(4-amino-3-fluorophenyl)-2,2-dimethylpentanoic acid]
- IC50 (HCT15 cells; [2]): 0.072 nM
- IC50 (HCT15 cells; [3]): 0.029 nM
- IC50 (SK-BR-3 cells): 0.017 nM

SMILES: CCCCCCN(C(=O)[C@@H](NC(=O)[C@H]1CCCCN1CCO)[C@@H](C)CC)[C@H](C[C@@H](OCC)c1nc(C(=O)N[C@@H](Cc2ccc(NC(=O)CN)cc2)CC(C)(C)C(=O)O)cs1)C(C)C [PA9, (S)-5-(4-(2-aminoacetamido)phenyl)-4-(2-((1R,3R)-1-ethoxy-3-((2S,3S)—N-hexyl-2-((R)-1-(2-hydroxyethyl)piperidine-2-carboxamido)-3-methylpentanamido)-4-methylpentyl)thiazole-4-carboxamido)-2,2-dimethylpentanoic acid]
- IC50 (HCT15 cells; [2]): 9.89 nM
- IC50 (HCT15 cells; [3]): 1.08 nM
- IC50 (SK-BR-3 cells): 5.38 nM

SMILES: CCCCCCN(C(=O)[C@@H](NC(=O)[C@H]1CCCCN1CC(=O)O)[C@@H](C)CC)[C@H](C[C@@H](OC(C)=O)c1nc(C(=O)N[C@@H](Cc2ccc(N)cc2)CC(C)(C)C(=O)O)cs1)C(C)C [PA10, (S)-4-(2-((1R,3R)-1-acetoxy-3-((2S,3S)-2-((R)-1-(carboxymethyl)piperidine-2-carboxamido)-N-hexyl-3-methylpentanamido)-4-methylpentyl)thiazole-4-carboxamido)-5-(4-aminophenyl)-2,2-dimethylpentanoic acid]
- IC50 (HCT15 cells; [2]): 31.7 nM
- IC50 (HCT15 cells; [3]): 2.95 nM
- IC50 (SK-BR-3 cells): 5.33 nM

SMILES: CCCCCCN(C(=O)[C@@H](NC(=O)[C@H]1CCCCN1CCOCCN)[C@@H](C)CC)[C@H](C[C@@H](OC(C)=O)c1nc(C(=O)N[C@@H](Cc2ccc(N)cc2)CC(C)(C)C(=O)O)cs1)C(C)C [PA11, (4S)-4-({2-[(1R,3R)-1-(acetyloxy)-3-[(2S,3S)-2-{[(2R)-1-[2-(2-aminoethoxy)ethyl]piperidin-2-yl]formamido}-N-hexyl-3-methylpentanamido]-4-methylpentyl]-1,3-thiazol-4-yl}formamido)-5-(4-aminophenyl)-2,2-dimethylpentanoic acid]
- IC50 (HCT15 cells; [2]): 150 nM
- IC50 (HCT15 cells; [3]): 5.3 nM
- IC50 (SK-BR-3 cells): 15.1 nM

SMILES: CCCCCCN(C(=O)[C@@H](NC(=O)[C@H]1CCCCN1CCOCCOCCN)[C@@H](C)CC)[C@H](C[C@@H](OC(C)=O)c1nc(C(=O)N[C@@H](Cc2ccc(N)cc2)CC(C)(C)C(=O)O)cs1)C(C)C [PA12, (4S)-4-({2-[(1R,3R)-1-(acetyloxy)-3-[(2S,3S)-2-{[(2R)-1-{2-[2-(2-aminoethoxy)ethoxy]ethyl}piperidin-2-yl]formamido}-N-hexyl-3-methylpentanamido]-4-methylpentyl]-1,3-thiazol-4-yl}formamido)-5-(4-aminophenyl)-2,2-dimethylpentanoic acid]
- IC50 (HCT15 cells; [2]): 72.1 nM
- IC50 (HCT15 cells; [3]): 4.73 nM
- IC50 (SK-BR-3 cells): > 100 nM

SMILES: CCCCCCN(C(=O)[C@@H](NC(=O)[C@H]1CCCCN1C)[C@@H](C)CC)[C@H](C[C@@H](NC(C)=O)c1nc(C(=O)N[C@@H](Cc2ccc(NC(=O)CN)cc2)CC(C)(C)C(=O)O)cs1)C(C)C [PA21, (S)-4-(2-((1R,3R)-1-acetamido-3-((2S,3S)—N-hexyl-3-methyl-2-((R)-1-methylpiperidine-2-carboxamido)pentanamido)-4-methylpentyl)thiazole-4-carboxamido)-acid]
- IC50 (HCT15 cells; [2]): 13.8 nM
- IC50 (HCT15 cells; [3]): 1.73 nM
- IC50 (SK-BR-3 cells): 0.703 nM

SMILES: CCCCCCN(C(=O)[C@@H](NC(=O)[C@H]1CCCCN1C)[C@@H](C)CC)[C@H](C[C@@H](OC(=O)NCC(O)CO)c1nc(C(=O)N[C@@H](Cc2ccc(N)cc2)CC(C)(C)C(=O)O)cs1)C(C)C (stereo partly drawn) [PA26, (4S)-5-(4-aminophenyl)-4-(2-((3S,6R,8R)-3-((S)-sec-butyl)-5-hexyl-13,14-dihydroxy-6-isopropyl-1-((R)-1-methylpiperidin-2-yl)-1,4,10-trioxo-9-oxa-2,5,11-triazatetradecan-8-yl)thiazole-4-carboxamido)-2,2-dimethylpentanoic acid]
- IC50 (HCT15 cells; [2]): 14.6 nM
- IC50 (HCT15 cells; [3]): 2.23 nM
- IC50 (SK-BR-3 cells): 2.82 nM

SMILES: CCCCCCN(C(=O)[C@@H](NC(=O)[C@H]1CCCCN1C)[C@@H](C)CC)[C@H](C[C@@H](OC(=O)NCC(O)CO)c1nc(C(=O)N[C@@H](Cc2ccc(NCCO)cc2)CC(C)(C)C(=O)O)cs1)C(C)C (some centres unmarked) [PA27]
- IC50 (HCT15 cells; [2]): > 100 nM
- IC50 (HCT15 cells; [3]): 33.6 nM
- IC50 (SK-BR-3 cells): 63.9 nM

SMILES: CCCCCCN(C(=O)[C@@H](NC(=O)[C@H]1CCCCO1)[C@@H](C)CC)[C@H](C[C@@H](OCC)c1nc(C(=O)N[C@@H](Cc2ccc(N)cc2)CC(C)(C)C(=O)O)cs1)C(C)C [PA28]
- IC50 (HCT15 cells; [2]): 154 nM
- IC50 (SK-BR-3 cells): > 100 nM
